Experimental data from PMC8006714 (Chemical Communications (Cambridge, England), 2021).
Several values for one entry are separate records, joined by “and”; a condition that tells them apart may be missing. Equal values may be shown once. Entries after “also recorded” stand apart in the source; their conditions may differ. Read-outs that look alike come from different tables or passages of the source.

Tests used:
[1] = biological target: T1, SARS-CoV-2 M^pro (Severe acute respiratory syndrome coronavirus 2, UniProt P0DTD1); test: biochemical; assay type: biochemical
[2] = biological target: T1, SARS-CoV-2 M^pro; assay type: binding; settings: for covalent modification of M^pro preincubated with N3 (active site selectivity): 1 μM M^pro preincubated with 3 μM N3, 20 μM inhibitor; for covalent modification of M^pro (protein observed SPE-MS): 20 μM inhibitor, 20 mM HEPES pH 7.5, 50 mM NaCl; for covalent reaction with M^pro (protein observed SPE-MS): 1 µM Mpro, 100 fold excess of β-lactam, 25 min to 24 h
[3] = biological target: T1, SARS-CoV-2 M^pro; test: biochemical; assay type: biochemical; settings: for inhibition at a fixed 20 μM inhibitor concentration: LOPAC and API library screens; for M^pro inhibition at single concentrations (in words): 20, 50 and 100 µM β-lactam, 30 min or 60 min preincubation (Fig. S17)
[4] = system: M^pro; parameters: method as in doi:10.1101/2020.05.28.120642; settings: read-out: reported IC50; cited from earlier work
[5] = 30 min preincubation, SPE-MS dose response
[6] = 60 min preincubation, SPE-MS dose response

Compound: Cc1cc(C(=O)N[C@@H](C)C(=O)N[C@H](C(=O)N[C@@H](CC(C)C)C(=O)N[C@H](/C=C/C(=O)OCc2ccccc2)C[C@@H]2CCNC2=O)C(C)C)no1 [Compound N3]
- IC50 ([1]; IC50 (SPE-MS)): 40 nM and 30 nM
- covalent modification of M^pro preincubated with N3 (active site selectivity) [2]: one major binding event
- covalent modification of M^pro (protein observed SPE-MS) ([2]; 1 μM M^pro): modifies M^pro in a covalent manner; also recorded: more than one reaction with the Mpro monomer; also recorded: predominantly (but not exclusively) a single N3 adduct was observed

Compound: CC(=O)OC[C@H]1O[C@@H]([S-])[C@H](OC(C)=O)[C@@H](OC(C)=O)[C@@H]1OC(C)=O.CCP(CC)CC.[Au+] [Auranofin]
- % Mpro inhibition at 20 µM [3]: 100.0%
- inhibition at a fixed 20 μM inhibitor concentration [3]: ≥ 80%
- IC50 [4]: ~500 nM

Compound: [Cl-].[Cl-].[Zn+2] [ZnCl2]
- Hill slope [1]: 2.23 and 2.07
- IC50 ([1]; read-out: IC50): 340 nM and 370 nM

Compound: CCN1CCN(C(=O)N[C@@H](C(=O)N[C@]2(OC)C(=O)N3C(C(=O)O)=C(CSc4nnnn4C)CS[C@@H]32)[C@H](C)O)C(=O)C1=O [cefbuperazone]
- covalent reaction with M^pro (protein observed SPE-MS) [2]: evidence for more than one reaction was accrued

Compound: CO[C@@]1(NC(=O)C(C(=O)O)c2ccc(O)cc2)C(=O)N2C(C(=O)O)=C(CSc3nnnn3C)CO[C@@H]21 (stereo partly shown) [moxalactam]
- covalent reaction with M^pro (protein observed SPE-MS) [2]: (partial) inhibitor fragmentation was observed

Compound: CC1(C)[C@H](C(=O)OCc2ccccc2)N2C(=O)[C@@H](NC(=O)COc3ccccc3)[C@H]2S1(=O)=O [Compound 1, penicillin V sulfone C3 benzyl ester]
- Hill slope [1, 5]: 1.4 ± 0.4
- Hill slope [1, 6]: 1.6 ± 0.2
- IC50 ([1]; IC50 (SPE-MS)): ~1500 nM and 1500 nM and 900 nM
- M^pro inhibition at single concentrations (in words) [3]: moderate inhibition
- covalent modification of M^pro preincubated with N3 (active site selectivity) [2]: no reaction
- covalent modification of M^pro (protein observed SPE-MS) ([2]; 1 μM M^pro): A single molecule 1 covalently modifies M^pro; also recorded: Covalent modification was observed

Compound: Cc1ccc(S(=O)(=O)/C=C/C#N)cc1 [BAY 11-7082]
- % Mpro inhibition at 20 µM [3]: 92.0%
- covalent modification of M^pro preincubated with N3 (active site selectivity) [2]: multiple adducts observed with unmodified M^pro were diminished; also recorded: to a lesser extent compared to active site free M pro
- covalent modification of M^pro (protein observed SPE-MS) ([2]; 1 μM M^pro): reacts with Mpro at multiple position

Compound: O=C(O)[C@H]1/C(=C/CO)O[C@@H]2CC(=O)N21 [clavulanate]
- covalent reaction with M^pro (protein observed SPE-MS) [2]: (partial) inhibitor fragmentation was observed

Compound: Oc1ccc2ccccc2c1SSc1c(O)ccc2ccccc12 [IPA-3, 1,1’-Disulfanediyldinaphthalen-2-ol]
- IC50 ([1]; IC50 (SPE-MS)): ~100 nM and 70 nM
- inhibition at a fixed 20 μM inhibitor concentration [3]: ≥ 80%
- inhibition at 20 µM ([3]; read-out: % Mpro inhibition at 20 µM): 99.1%
- covalent modification of M^pro preincubated with N3 (active site selectivity) [2]: multiple adducts observed with unmodified M^pro were diminished; also recorded: does not (at least substantially) covalently modify Mpro
- covalent modification of M^pro (protein observed SPE-MS) ([2]; 1 μM M^pro): reacts with Mpro at multiple positions

Compound: COC1(NC(=O)Cc2ccccc2)C(=O)N2C1[S+]([O-])C(C)(C)C2C(=O)OCc1ccc([N+](=O)[O-])cc1 (stereo not shown) [Compound 2, C6-methoxy penicillin G sulfoxide C3 p-nitrobenzyl ester]
- Hill slope [1, 5]: 2.2 ± 0.1
- Hill slope [1, 6]: 2.1 ± 0.1
- IC50 ([1]; IC50 (SPE-MS)): ~3500 nM and 3500 nM and 2100 nM
- M^pro inhibition at single concentrations (in words) [3]: moderate inhibition
- covalent modification of M^pro preincubated with N3 (active site selectivity) [2]: Minor further modification
- covalent modification of M^pro (protein observed SPE-MS) ([2]; 1 μM M^pro): does not efficiently modify M^pro through covalent reaction
- extent of covalent modification of M^pro ([2]; 1 μM M^pro, 20 μM β-lactam): < 10%

Compound: O=c1c2ccccc2[se]n1-c1ccccc1 [Ebselen]
- inhibition at 20 µM ([3]; read-out: % Mpro inhibition at 20 µM, library of FDA-approved small molecules, 20 µM compound, […] Mpro, 2.0 µM TSAVLQ/SGFRK-NH2): 99.1%
- covalent modification of M^pro (protein observed SPE-MS) ([2]; 1 μM M^pro): covalently reacts multiple times with Mpro
- covalent modification of M^pro (protein observed SPE-MS) ([2]; 1 μM M^pro, listed as ebselen): modifies M^pro in a covalent manner; also recorded: time dependent modification of multiple residues

Compound: CO[C@@]1(NC(=O)C2SC(=C(C(N)=O)C(=O)O)S2)C(=O)N2C(C(=O)O)=C(CSc3nnnn3C)CS[C@@H]21 (stereo partly shown) [cefotetan]
- covalent reaction with M^pro (protein observed SPE-MS) [2]: evidence for more than one reaction was accrued

Compound: O=C1C(SCCO)=C(SCCO)C(=O)c2ccccc21 [NSC 95397]
- % Mpro inhibition at 20 µM [3]: 99.0%
- covalent modification of M^pro preincubated with N3 (active site selectivity) [2]: does not selectively bind to the M pro active site
- covalent modification of M^pro (protein observed SPE-MS) ([2]; 1 μM M^pro): reacts with Mpro at multiple positions

Compound: CO[C@@]1(NC(=O)Cc2cccs2)C(=O)N2C(C(=O)O)=C(COC(N)=O)CS[C@@H]21 [cefoxitin]
- covalent reaction with M^pro (protein observed SPE-MS) [2]: evidence for more than one reaction was accrued

Compound: CC(=O)OCC1=C(C(=O)[O-])N2C(=O)[C@@H](NC(=O)CCC[C@@H](N)C(=O)[O-])[C@H]2SC1.[Zn+2] [Cephalosporin C zinc salt]
- Hill slope ([1]; 22 minutes preincubation, SPE-MS): 1.83
- % Mpro inhibition at 20 µM [3]: 92.3%
- M^pro inhibition (in words) [3]: inhibited

Compound: Cc1ccc(S(=O)(=O)N[C@@H](Cc2ccccc2)C(=O)CCl)cc1 [TPCK, N-p-Toluenesulfonyl-L-phenylalanine chloromethyl ketone]
- IC50 ([1]; pH 7.5, read-out: IC50 (SPE-MS)): ~800 nM and 830 nM
- % Mpro inhibition at 20 µM [3]: 94.1%
- covalent modification of M^pro preincubated with N3 (active site selectivity) [2]: does not covalently modify M^pro in the presence of N3; also recorded: substantial covalent modification was no longer observed; also recorded: does not react with TPCK
- covalent modification of M^pro (protein observed SPE-MS) ([2]; 1 μM M^pro): modifies M^pro in a covalent manner; also recorded: covalently reacts with Mpro

Compound: Cc1ccc(S(=O)(=O)N[C@@H](CCCCN)C(=O)CCl)cc1.Cl [TLCK, Nα-p-Toluenesulfonyl-L-lysine chloromethyl ketone hydrochloride]
- % Mpro inhibition at 20 µM [3]: 88.3%
- covalent modification of M^pro preincubated with N3 (active site selectivity) [2]: does not react with TLCK
- covalent modification of M^pro preincubated with N3 (active site selectivity) ([2]; listed as Nα-p-toluenesulfonyl-L-lysine chloromethyl ketone): substantial covalent modification was no longer observed
- covalent modification of M^pro (protein observed SPE-MS) ([2]; 1 μM M^pro): covalently reacts with M pro

Compound: C[C@]1(Cn2ccnn2)[C@H](C(=O)O)N2C(=O)C[C@H]2S1(=O)=O [tazobactam]
- covalent reaction with M^pro (protein observed SPE-MS) [2]: increased over time
